The text below walks through data of patent US12612389B2, “Benzofuran-based N-acylhydrazone derivative and pharmaceutical composition comprising same” (KOREA RESEARCH INSTITUTE OF BIOSCIENCE AND BIOTECHNOLOGY, priority 2019, dated 2026).

Each structure is given as a SMILES string.

What is called IC50 is the midpoint of a concentration-inhibition curve.

One data set concerns K562/ADR. The data set is described as follows: Anti-proliferative activity test in cancer cells exhibiting multidrug resistance (MTT). The data set is classed as cell-based. The protocol: (§1) HeLa cells (American Type Culture Collection: ATCC, USA), a human cervical cancer cell line, were seeded in a 96-well plate at 3×10^3 cells/well, and the cells were then treated with compounds of Examples or Comparative Example according to the present invention and grown for 2 days. Then, MTT (3-(4,5-dimethylthiazol-2-yl)-2,5-diphenyltetrazolium bromide) reagent was added at 10 μL/well. […] The data shown in Table below are mean values of results obtained by repeating the analysis twice. Specifically, K562 and MCF7 (Bio Evaluation Center, Korea Research Institute of Bioscience and Biotechnology, Korea) and multidrug-resistant cell lines of each of these cell lines, i.e., K562/ADR and MCF7/ADR (Bio Evaluation Center, Korea Research Institute of Bioscience and Biotechnology, Korea), were cultured on microtiter plates (1-3×10^3 cells/well). […] The data shown in Table below are mean values of results obtained by repeating the analysis three times.

In the next data set the test system is MCF7/ADR. Described as above. The data set is classed as cell-based. The protocol:
as §1

The subject of another data set is NCI-H125. The data set is described as follows: Anti-proliferative activity in other cancer cell lines (MTT). To be noted: Homo sapiens, 96 h, Lung, 4 days. Type of data set: cell-based. The protocol:
(§2) HeLa cells (American Type Culture Collection: ATCC, USA), a human cervical cancer cell line, were seeded in a 96-well plate at 3×10^3 cells/well, and the cells were then treated with compounds of Examples or Comparative Example according to the present invention and grown for 2 days. Then, MTT (3-(4,5-dimethylthiazol-2-yl)-2,5-diphenyltetrazolium bromide) reagent was added at 10 μL/well. After 2 hours, absorbance was measured at “OD 450” and statistical values were obtained using Prism™6 program. The data shown in Table below are mean values of results obtained by repeating the analysis twice.
(§3) Specifically, various cancer cell lines were cultured in a microtiter plate (1-3×10^3 cells/well), treated with the compound of Example 4 according to the present invention, and cultured for 4 days. Cytotoxicity was tested by MTT assay in the same manner as in Experimental Example 1-1, and IC50 was obtained by a log-dose response curve. The data shown in Table below are mean values of results obtained by repeating the analysis three times.

Another data set relates to MOLT4. Described as above. Type of data set: cell-based. Conditions: Homo sapiens, MOLT-4, 96 h, Marrow (leukemia), 4 days. The protocol: as §2, §3
A further data set relates to NCI-H522. The description is as above. The data set is classed as cell-based. Conditions: Homo sapiens, 96 h, Lung, 4 days. The protocol:
as §2, §3

The subject of another data set is MDA-MB-468. The data set is described as above. The data set is classed as cell-based. To be noted: Homo sapiens, 96 h, Breast, 4 days. The protocol:
as §2, §3

In another data set the test system is U-2-OS. The data set is described as above. Conditions: Homo sapiens, U2OS, 96 h, Bone, 4 days. The data set is classed as cell-based. The protocol:
as §2, §3

The test system of a further data set is Hep3B. Described as above. To be noted: Homo sapiens, 96 h, Liver, 4 days. The data set is classed as cell-based. The protocol: as §2, §3
The subject of a further data set is A549. The data set is described as above. Type of data set: cell-based. To be noted: Homo sapiens, 96 h, A549 (line stands under Liver), 4 days. The protocol: as §2, §3
Another data set relates to SK-N-MC. The description is as above. The data set is classed as cell-based. Conditions: Homo sapiens, 96 h, Brain, 4 days. The protocol:
as §2, §3

The subject of a further data set is PC3. The data set is described as above. Type of data set: cell-based. Conditions: Homo sapiens, PC-3, 96 h, Prostate, 4 days. The protocol:
as §2, §3

In a further data set the test system is SNB75. The description is as above. The data set is classed as cell-based. Conditions: Homo sapiens, SNB-75, 96 h, CNS, 4 days. The protocol:
as §2, §3

The next data set has as its system A172. The data set is described as above. The data set is classed as cell-based. To be noted: Homo sapiens, A 172, 96 h, Brain, 4 days. The protocol:
as §2, §3

For a further data set, the system named is SNU 484. The description is as above. The data set is classed as cell-based. Conditions: 96 h, Stomach, 4 days. The protocol: as §2, §3
The test system of another data set is HeLa CCL2. The description is as above. Type of data set: cell-based. To be noted: Homo sapiens, 96 h, Cervix, 4 days. The protocol: as §2, §3
The test system of another data set is NCI-H1299. Described as above. Type of data set: cell-based. Conditions: Homo sapiens, 96 h, Lung, 4 days. The protocol:
as §2, §3

For a further data set, the system named is A498. The description is as above. Conditions: Homo sapiens, 96 h, Kidney, 4 days. The data set is classed as cell-based. The protocol: as §2, §3
The nature of data set [1]: Solubility of the compound in the toxicity-test solvent. Type of data set: physicochemical. Conditions: N′,N′-dimethylacetamide/Kolliphor/2-hydroxypropyl-β-cyclodextrin (10% in distilled water)=40:10:50; thicker solutions precipitated. The protocol: 100 mg/kg of the compound of Example 4 was dissolved in a solvent (N′,N′-dimethylacetamide/Kolliphor/2-hydroxypropyl-β-cyclodextrin (10% concentration of distilled water solution)=40:10:50). When the concentration became thicker than that, the reaction solution immediately precipitated. The solution in which the compound of Example 4 was dissolved from 12.5 mg/kg to 100 mg/kg was injected into the peritoneal cavity of mice 10 times […] in a volume of 100 μL (see FIG. 8A). All animals survived to the final day, and no particular problems were seen by visual observation (see Table 13 and FIG. 8A).

The subject of the next data set is K562. The data set is described as follows: Anti-proliferative activity test in cancer cells exhibiting multidrug resistance (MTT), parent line. Type of data set: cell-based. To be noted: Homo sapiens, 96 h, 4 days. The protocol: as §1
For another data set, the system named is MCF7. The description is as above. Conditions: Homo sapiens, 96 h, 4 days. The data set is classed as cell-based. The protocol: as §1
The test system of data set [2] is HeLa CCL2 cells. The data set is described as follows: In vitro invasion assay (trans well). Type of data set: cell-based, human. To be noted: 10 nM, 50 nM, 100 nM, 250 nM, 16 hours, FIGS. 7A and 7B. The protocol: In addition, in order to confirm the efficacy of inhibiting cell migration again, an invasion assay was performed. A trans well chamber for a 24-well plate was prepared, and HeLa CCL2 cells at a density of 5×10^4 were put into the upper chamber, treated with 10 nM, 50 nM, 100 nM, and 250 nM of the compound of Example 4, and cultured. Then, after 16 hours, the migrated cells were identified and the number thereof was measured through cell staining.

The test system of data set [3] is HeLa CCL2 cells. The data set is described as follows: Wound healing assay. The data set is classed as cell-based, human. To be noted: up to 100 nM, FIGS. 6A and 6B. The protocol: HeLa CCL2 cells were cultured in 6 wells at 100%, wounded with a yellow tip, and treated with 50 nM and 100 nM of the compound of Example 4. In order to observe the effect of the drug, the degree of cell migration was compared and observed by recording the state of the cells before treatment as images, and comparing the cell state before drug treatment with the state of the cells at 24, 36, and 48 hours post the drug treatment. The concentration of the compound of Example 4 treated with the cells was determined by performing MTT assay.

Consider `CCOCCn1c(Cl)c(/C=N/NC(=O)c2cc3cc(C)ccc3o2)c2ccccc21` [Example 4, (E)-N′-[(2-chloro-1-(2-ethoxyethyl)-1H-indol-3-yl]methylene}-5-methylbenzofuran-2-carbohydrazide], for which the IC50 in the data set with K562/ADR (Homo sapiens, 96 h, K562/ADR (multidrug-resistant), 4 days, MTT) is 201 nM; in the data set on MCF7/ADR (Homo sapiens, NCI/ADR-RES, 96 h, MCF7/ADR (multidrug-resistant), 4 days, MTT), 332 nM; with NCI-H125, 370 ± 200 nM; in the data set on MOLT4 it was 300 ± 10 nM; in the data set on NCI-H522 it was 370 ± 130 nM; in the data set on MDA-MB-468, 690 ± 30 nM. For the same compound, the IC50 was determined as 420 ± 60 nM with U-2-OS; 190 ± 50 nM in the data set on Hep3B; 630 ± 120 nM in the data set with A549; 980 ± 110 nM in the data set on SK-N-MC; 710 ± 180 nM in the data set with PC3; 390 ± 30 nM in the data set on SNB75. The IC50 in the data set on A172 worked out at 790 ± 90 nM; with SNU 484, 350 ± 70 nM; in the data set on HeLa CCL2 it was 180 ± 4 nM; in the data set with NCI-H1299, 560 ± 150 nM; with A498, 170 ± 8 nM; in the data set with K562, 350 nM. In addition, the IC50 in the data set on MCF7 is 822 nM. The “Resistance Factor” value with K562/ADR (ratio IC50 K562/ADR to IC50 K562) came to 0.57; in the data set with MCF7/ADR (ratio IC50 MCF7/ADR to IC50 MCF7) it was 0.40. For the same compound, the “highest concentration dissolved without precipitation” value in [1] was 100 mg/kg. The “cancer metastasis inhibitory effect (migrated cells)” value in the data set on HeLa CCL2 cells [2] is recorded as “excellent cancer metastasis inhibitory effect”. Besides, the “effect on cell growth” value with HeLa CCL2 cells [3] was “did not have a significant effect on cell growth”.
